According to ChEMBL document CHEMBL1240317, “Probing cell-division phenotype space and Polo-like kinase function using small molecules” (Nat Chem Biol, 2006):
The source made the active and inactive calls. No rule for the calls is given here.

How the values were obtained:
Format in all cases: functional, cell-based
Conditions in all cases: Chlorocebus aethiops
BSC-1 [1] = test: Induction of reduced mitotic index in african green monkey BSC1 cells at 20 uM after 4 hrs by immunocytochemistry
BSC-1 [2] = test: Induction of deffects in mitotic spindle in african green monkey BSC1 cells at 20 uM after 4 hrs by immunocytochemistry
BSC-1 [3] = test: Induction of severe microtubule disruption in african green monkey BSC1 cells at 20 uM after 4 hrs by immunocytochemistry

SMILES | Activity (BSC-1 [1]) | Activity (BSC-1 [2]) | Activity (BSC-1 [3])
CC(=O)Nc1ccc(Nc2ccnc(NCc3cccs3)n2)cc1 | Active | Active | Active
CC(=O)Nc1ccc(Nc2ccnc(Nc3ccc(Cl)cc3Cl)n2)cc1 | – | – | Active
COc1ccc(Nc2ncc([N+](=O)[O-])c(Nc3ccc4[nH]ccc4c3)n2)cc1 | – | – | Active
O=[N+]([O-])c1cnc(Nc2ccc(Cl)c(Cl)c2)nc1Nc1ccc2ncsc2c1 | – | Active | –
O=C(c1ccccc1)c1ccccc1Nc1nc(Nc2ccc(Cl)c(Cl)c2)ncc1[N+](=O)[O-] | Active | Active | Active
CC(C)(Nc1ncc([N+](=O)[O-])c(Nc2ccc3ncsc3c2)n1)c1ccccc1 | Active | Active | Active
CC(=O)Nc1ccc(Nc2ncc([N+](=O)[O-])c(Nc3ccccc3C(N)=O)n2)cc1 | – | Active | –
CCCCNc1ncc([N+](=O)[O-])c(NC2CCCC2)n1 | Active | Active | Active
CC(=O)Nc1ccc(Nc2ccnc(Nc3ccc4ncsc4c3)n2)cc1 | – | – | Active
O=C(c1ccccc1)c1ccccc1Nc1nc(NCCCN2CCCC2=O)ncc1[N+](=O)[O-] | – | Active | –
O=[N+]([O-])c1cnc(Nc2ccc(Cl)c(Cl)c2)nc1Nc1ccc2[nH]ccc2c1 | Active | Active | Active
CCN(CC)CCCC(C)Nc1ncc([N+](=O)[O-])c(NC2CCCC2)n1 (centres undefined) | Active | Active | Active
CC(=O)Nc1ccc(Nc2ccnc(Nc3ccc(C(C)(C)C)cc3)n2)cc1 | – | – | Active
NC(=O)c1ccccc1Nc1nc(NCc2cccs2)ncc1[N+](=O)[O-] | Active | Active | Active
OCC(Cc1ccccc1)Nc1nccc(Nc2ccc3c(c2)OCO3)n1 (centres undefined) | Active | Active | Active
O=C(c1ccccc1)c1ccccc1Nc1nc(NC2CCCC2)ncc1[N+](=O)[O-] | Active | Active | Active
O=C(c1ccccc1)c1ccccc1Nc1nc(Nc2ccc3c(c2)CCC3)ncc1[N+](=O)[O-] | Active | Active | Active
CC(C)(C)c1ccc(Nc2ncc([N+](=O)[O-])c(Sc3cccc(Cl)c3)n2)cc1 | Active | Active | Active
CN1CCN(c2ccc(Nc3ncc([N+](=O)[O-])c(Nc4ccccc4C(N)=O)n3)cc2)CC1 | – | – | Active
O=[N+]([O-])c1cnc(NC2CCCCCC2)nc1Nc1ccc(Cl)c(Cl)c1 | Active | Active | Active
O=[N+]([O-])c1cnc(-n2ccnc2-c2ccccc2)nc1Nc1ccc2ncsc2c1 | – | Active | –
O=[N+]([O-])c1cnc(Nc2ccc3ccccc3c2)nc1Nc1ccc(Cl)c(Cl)c1 | Active | Active | Active
CC(=O)Nc1ccc(Nc2ncc([N+](=O)[O-])c(Nc3ccc4ncsc4c3)n2)cc1 | Active | Active | Active
O=[N+]([O-])c1cnc(NC(CO)Cc2ccccc2)nc1Nc1ccc(Cl)c(Cl)c1 (centres undefined) | Active | Active | Active

SMILES | Activity (BSC-1 [1]) | Activity (BSC-1 [2]) | Activity (BSC-1 [3])
CC(C)(C)c1ccc(Nc2nccc(-n3ccnc3-c3ccccc3)n2)cc1 | – | Active | –
O=C(c1ccccc1)c1ccccc1Nc1nc(Nc2ccc3ncsc3c2)ncc1[N+](=O)[O-] | Active | Active | Active
CCCCNc1ncc([N+](=O)[O-])c(Nc2ccc3[nH]ccc3c2)n1 | Active | Active | Active
c1ccc2cc(Nc3nccc(Nc4ccc5c(c4)CCC5)n3)ccc2c1 | Active | Active | Active
O=[N+]([O-])c1cnc(Nc2ccc3[nH]ccc3c2)nc1Nc1ccc(Cl)c(Cl)c1 | Active | Active | Active
CCCCNc1ncc([N+](=O)[O-])c(Nc2ccccc2C(N)=O)n1 | Active | Active | Active
CN1CCN(c2ccnc(NCc3cccs3)n2)CC1 | Active | Active | Active
O=[N+]([O-])c1cnc(Cl)nc1NC1CCCC1 | – | Active | –
O=C(c1ccccc1)c1ccccc1Nc1nc(Nc2ccc3ccccc3c2)ncc1[N+](=O)[O-] | Active | Active | Active
CCN(CC)CCCC(C)Nc1ncc([N+](=O)[O-])c(Nc2ccc3ncsc3c2)n1 (centres undefined) | Active | Active | Active
CCCCNc1nc(Nc2ccc(C(C)(C)C)cc2)ncc1[N+](=O)[O-] | Active | Active | Active
c1ccc(-c2nccn2-c2ccnc(NC3CCCC3)n2)cc1 | Active | Active | Active
CC(=O)Nc1ccc(Nc2ccnc(Nc3ccncc3)n2)cc1 | Active | Active | Active
O=[N+]([O-])c1cnc(NC2CCCCCC2)nc1Nc1ccc2ncsc2c1 | Active | Active | Active
CC(=O)Nc1ccc(Nc2nccc(Nc3ccc4c(c3)CCC4)n2)cc1 | Active | Active | Active
O=[N+]([O-])c1cnc(NCc2cccs2)nc1Nc1ccc(Cl)c(Cl)c1 | Active | Active | Active
CCCCNc1nc(Nc2ccc3[nH]ccc3c2)ncc1[N+](=O)[O-] | Active | Active | Active
O=[N+]([O-])c1cnc(Nc2ccc3[nH]ccc3c2)nc1NC1CCCC1 | Active | Active | Active
c1ccc2cc(Nc3nccc(Nc4ccc5c(c4)OCO5)n3)ccc2c1 | Active | Active | Active
c1ccc(-c2nccn2-c2ccnc(Nc3ccc4ncsc4c3)n2)cc1 | – | – | Active
CCCCNc1nc(Nc2ccc3ccccc3c2)ncc1[N+](=O)[O-] | Active | Active | Active
CN1CCN(c2nccc(Nc3ccc4c(c3)OCO4)n2)CC1 | Active | Active | Active
CC(=O)Nc1ccc(Nc2nccc(Nc3ccc4[nH]ccc4c3)n2)cc1 | – | – | Active
Clc1ccc(Nc2nccc(Nc3ccc4c(c3)CCC4)n2)cc1Cl | – | Active | –

SMILES | Activity (BSC-1 [1]) | Activity (BSC-1 [2]) | Activity (BSC-1 [3])
CC(C)(Nc1ncc([N+](=O)[O-])c(NC2CCCC2)n1)c1ccccc1 | Active | Active | Active
CC(=O)Nc1ccc(Nc2ccnc(Nc3ccc4ccccc4c3)n2)cc1 | – | – | Active
CC(C)(Nc1ncc([N+](=O)[O-])c(Nc2ccccc2C(N)=O)n1)c1ccccc1 | – | – | Active
COc1cc(Nc2ncc([N+](=O)[O-])c(Nc3ccccc3C(N)=O)n2)cc(OC)c1OC | – | – | Active
CN1CCN(c2ncc([N+](=O)[O-])c(Nc3ccccc3C(=O)c3ccccc3)n2)CC1 | Active | Active | Active
Clc1ccc(Nc2nccc(Nc3ccc4c(c3)OCO4)n2)cc1Cl | Active | Active | Active
O=C(c1ccccc1)c1ccccc1Nc1nc(NC(CO)Cc2ccccc2)ncc1[N+](=O)[O-] (centres undefined) | – | Active | –
CCCCNc1nc(Nc2ccc(NC(C)=O)cc2)ncc1[N+](=O)[O-] | – | Active | –
CC(=O)Nc1ccc(Nc2ncc([N+](=O)[O-])c(Nc3ccc(Cl)c(Cl)c3)n2)cc1 | Active | Active | Active
O=[N+]([O-])c1cnc(-n2ccnc2-c2ccccc2)nc1NC1CCCC1 | Active | Active | Active
O=[N+]([O-])c1cnc(Nc2ccc3c(c2)CCC3)nc1Nc1ccc(Cl)c(Cl)c1 | Active | Active | Active
OCC1CCCN1c1nccc(Nc2ccc3c(c2)OCO3)n1 (centres undefined) | Active | Active | Active
O=[N+]([O-])c1cnc(Nc2cccc3ncccc23)nc1Nc1ccc2ncsc2c1 | – | – | Active
Cc1cc(Nc2cc(C3CC3)[nH]n2)nc(Nc2ccc(CC#N)cc2)n1 | – | – | Active
c1cc(Nc2ccc3c(c2)OCO3)nc(Nc2ccc3ncsc3c2)n1 | – | – | Active
CC(C)(C)c1ccc(Nc2ncc([N+](=O)[O-])c(Nc3ccccc3C(N)=O)n2)cc1 | – | – | Active
COc1cc(Nc2ncc([N+](=O)[O-])c(Nc3ccc4c(c3)OCO4)n2)cc(OC)c1OC | – | – | Active
CC(C)(C)c1ccc(Nc2ncc([N+](=O)[O-])c(Nc3ccc4ncsc4c3)n2)cc1 | – | Active | –
CN1CCN(c2ccnc(Sc3cccc(Cl)c3)n2)CC1 | – | Active | –
O=[N+]([O-])c1cnc(Nc2ccncc2)nc1NC1CCCC1 | – | – | Active
O=[N+]([O-])c1cnc(Nc2ccc3ccccc3c2)nc1Nc1ccc2ncsc2c1 | – | Active | –
CC(=O)Nc1ccc(Nc2ncc([N+](=O)[O-])c(NC3CCCC3)n2)cc1 | Active | – | –
O=[N+]([O-])c1cnc(Nc2ccc3[nH]ccc3c2)nc1Nc1ccc2ncsc2c1 | – | Active | –
O=C(c1ccccc1)c1ccccc1Nc1nc(NCc2cccs2)ncc1[N+](=O)[O-] | Active | – | –
